Values joined by “and” are separate entries in the source; they are usually repeats but may differ in a detail not shown here. Equal entries are not always repeated. Inconclusive results and toxic doses are left out. Peptide text beside a SMILES is read from it.
Test system: P388 leukemia ip, CD2F1 mice, survival T/C
Experiment: NCI In Vivo Anticancer Drug Screen. Data for tumor model P388 Leukemia (intraperitoneal) in CD2F1 (CDF1) mice
Settings: endpoint: median survival time, higher = longer survival
Procedure, shortened: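 Mice carrying the transplanted tumor received test compound or vehicle. Survival was recorded in each group, and the value is the treated-group measurement divided by that of the vehicle-treated control group.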

[1] = dose: 60.0 mg/kg/injection, schedule: Q01DX005 (ip), vehicle: saline
[2] = dose: 120.0 mg/kg/injection, schedule: Q01DX005 (ip), vehicle: saline
[3] = dose: 240.0 mg/kg/injection, schedule: Q01DX005 (ip), vehicle: saline
[4] = dose: 50.0 mg/kg/injection, schedule: Q01DX009 (ip), vehicle: saline
[5] = dose: 100.0 mg/kg/injection, schedule: Q01DX009 (ip), vehicle: saline
[6] = dose: 200.0 mg/kg/injection, schedule: Q01DX009 (ip), vehicle: saline
[7] = dose: 12.5 mg/kg/injection, schedule: Q01DX005 (ip), vehicle: Klucel (hydroxypropylcellulose) (HPC)
[8] = dose: 25.0 mg/kg/injection, schedule: Q01DX005 (ip), vehicle: Klucel (hydroxypropylcellulose) (HPC)
[9] = dose: 50.0 mg/kg/injection, schedule: Q01DX005 (ip), vehicle: Klucel (hydroxypropylcellulose) (HPC)
[10] = dose: 100.0 mg/kg/injection, schedule: Q04DX003 (ip), vehicle: Klucel (hydroxypropylcellulose) (HPC)
[11] = dose: 200.0 mg/kg/injection, schedule: Q04DX003 (ip), vehicle: Klucel (hydroxypropylcellulose) (HPC)
[12] = dose: 400.0 mg/kg/injection, schedule: Q04DX003 (ip), vehicle: Klucel (hydroxypropylcellulose) (HPC)

O=NN(CCSCCO)C(=O)NC1CCCCC1
T/C (dose: 6.25 mg/kg/injection, schedule: Q01DX009 (ip), vehicle: water): 101 % of control | T/C (dose: 12.5 mg/kg/injection, schedule: Q01DX009 (ip), vehicle: water): 100 % of control | T/C (dose: 25.0 mg/kg/injection, schedule: Q01DX009 (ip), vehicle: water): 102 % of control | T/C (dose: 50.0 mg/kg/injection, schedule: Q01DX009 (ip), vehicle: water): 109 % of control | T/C (dose: 100.0 mg/kg/injection, schedule: Q01DX009 (ip), vehicle: water): 110 % of control | T/C (dose: 200.0 mg/kg/injection, schedule: Q01DX009 (ip), vehicle: water): 107 % of control

Cc1ccc(N2C(=O)CCSC2=S)cc1C
T/C (dose: 50.0 mg/kg/injection, schedule: Q01DX009 (ip), vehicle: suspension in saline): 108 % of control | T/C (dose: 100.0 mg/kg/injection, schedule: Q01DX009 (ip), vehicle: suspension in saline): 89 % of control | T/C (dose: 200.0 mg/kg/injection, schedule: Q01DX009 (ip), vehicle: suspension in saline): 99 % of control

CCCOc1ccccc1NC(=O)CN1CCCC1
T/C [1]: 104 % of control | T/C [2]: 106 % of control | T/C [3]: 116 % of control

COC(=O)C1=CO[C@@H](O)[C@@H]2C(C)OC(=O)C[C@H]12 (stereo partly specified)
T/C [1]: 104 % of control | T/C [2]: 104 % of control | T/C [3]: 109 % of control

O=C(O)C1CSC(c2ccccc2O)N1 (stereo unspecified)
T/C [4]: 90 % of control | T/C [5]: 96 % of control | T/C [6]: 90 % of control

COc1cc2ccc3c4c(OC)c(OC)c(OC)cc4c[n+](C)c3c2cc1OC
T/C (dose: 2.0 mg/kg/injection, schedule: Q01DX009 (ip), vehicle: water): 111 % of control | T/C (dose: 4.0 mg/kg/injection, schedule: Q01DX009 (ip), vehicle: water): 113 % of control | T/C (dose: 8.0 mg/kg/injection, schedule: Q01DX009 (ip), vehicle: water): 110 % of control | T/C (dose: 16.0 mg/kg/injection, schedule: Q01DX009 (ip), vehicle: water): 118 % of control

CCC[As](CCC)SC1CCC2(C)C(=CCC3C4CCC(=O)C4(C)CCC32)C1 (stereo unspecified)
T/C (dose: 12.5 mg/kg/injection, schedule: Q01DX009 (ip), vehicle: distilled water + Tween-80): 98 % of control | T/C (dose: 25.0 mg/kg/injection, schedule: Q01DX009 (ip), vehicle: distilled water + Tween-80): 98 % of control | T/C (dose: 50.0 mg/kg/injection, schedule: Q01DX009 (ip), vehicle: distilled water + Tween-80): 95 % of control | T/C (dose: 100.0 mg/kg/injection, schedule: Q01DX009 (ip), vehicle: distilled water + Tween-80): 92 % of control | T/C (dose: 200.0 mg/kg/injection, schedule: Q01DX009 (ip), vehicle: distilled water + Tween-80): 98 % of control

N#Cc1cn(C2OC(CO)C(O)C2O)c2ncnc(Cl)c12 (stereo unspecified)
T/C (dose: 60.0 mg/kg/injection, schedule: Q01DX005 (ip), vehicle: saline with Tween-80): 151 % of control and 174 % of control | T/C (dose: 120.0 mg/kg/injection, schedule: Q01DX005 (ip), vehicle: saline with Tween-80): 111 % of control

C[CH2][Sn]([CH2]C)[O][Sn]([Cl])([CH2]C)[CH2]C
T/C (dose: 3.12 mg/kg/injection, schedule: Q01DX005 (ip), vehicle: Klucel (hydroxypropylcellulose) (HPC)): 116 % of control | T/C (dose: 6.25 mg/kg/injection, schedule: Q01DX005 (ip), vehicle: Klucel (hydroxypropylcellulose) (HPC)): 118 % of control and 121 % of control | T/C [7]: 104 % of control and 121 % of control | T/C [8]: 120 % of control

NC(=O)c1c[se]c(C2OC(CO)C(O)C2O)n1 (stereo unspecified)
T/C (dose: 25.0 mg/kg/injection, schedule: Q01DX005 (ip), vehicle: saline): 154 % of control

Cc1cc(=O)oc2cc(OC(=O)Nc3ccc(Cl)c(Cl)c3)ccc12
T/C (dose: 3.12 mg/kg/injection, schedule: Q01DX009 (ip), vehicle: saline): 101 % of control | T/C (dose: 6.25 mg/kg/injection, schedule: Q01DX009 (ip), vehicle: saline): 100 % of control | T/C (dose: 12.5 mg/kg/injection, schedule: Q01DX009 (ip), vehicle: saline): 101 % of control and 90 % of control

CCCCCC(C)(O)C1=NCCN1 (stereo unspecified)
T/C [7]: 97 % of control | T/C [8]: 95 % of control | T/C [9]: 100 % of control and 93 % of control

N#Cc1c(N)sc(=S)c2c1CCCC2
T/C [4]: 104 % of control | T/C [5]: 95 % of control | T/C [6]: 95 % of control

Cc1ccc(S(=O)(=O)N2CC3CC(/C=C/c4ccnc5ccccc45)CC(C3)C2)cc1 (stereo unspecified)
T/C (dose: 25.0 mg/kg/injection, schedule: Q01DX001 (ip), vehicle: suspension in saline): 96 % of control | T/C (dose: 50.0 mg/kg/injection, schedule: Q01DX001 (ip), vehicle: suspension in saline): 102 % of control | T/C (dose: 100.0 mg/kg/injection, schedule: Q01DX001 (ip), vehicle: suspension in saline): 95 % of control

CCC(C)C(NC(=O)C(Cc1ccccc1)NC(=O)C(N)CSC)C(N)=O (stereo not drawn) (H-Cys(Me)-Phe-Ile-NH2; configuration not given here)
T/C [9]: 102 % of control | T/C (dose: 100.0 mg/kg/injection, schedule: Q01DX005 (ip), vehicle: Klucel (hydroxypropylcellulose) (HPC)): 99 % of control | T/C (dose: 200.0 mg/kg/injection, schedule: Q01DX005 (ip), vehicle: Klucel (hydroxypropylcellulose) (HPC)): 99 % of control

O=C(O)C1=Cc2ccccc2OC1
T/C [10]: 101 % of control | T/C [11]: 107 % of control | T/C [12]: 105 % of control

COC(=O)c1ccc(SCC2(CCN3C(=O)c4ccccc4C3=O)OCCO2)cc1
T/C [10]: 97 % of control | T/C [11]: 96 % of control | T/C [12]: 88 % of control

O=[N+]([O-])c1ccc(N2CC2)c2c1no[n+]2[O-]
T/C (dose: 7.5 mg/kg/injection, schedule: Q04DX003 (ip), vehicle: saline with Tween-80): 101 % of control | T/C (dose: 15.0 mg/kg/injection, schedule: Q04DX003 (ip), vehicle: saline with Tween-80): 99 % of control | T/C (dose: 30.0 mg/kg/injection, schedule: Q04DX003 (ip), vehicle: saline with Tween-80): 100 % of control | T/C (dose: 60.0 mg/kg/injection, schedule: Q04DX003 (ip), vehicle: saline with Tween-80): 100 % of control

CN=C(N)N/N=C(\C)c1ccc2c(ccc3ccccc32)c1
T/C (dose: 6.25 mg/kg/injection, schedule: Q04DX002 (ip), vehicle: saline with Tween-80): 105 % of control and 108 % of control | T/C (dose: 12.5 mg/kg/injection, schedule: Q04DX002 (ip), vehicle: saline with Tween-80): 104 % of control and 107 % of control | T/C (dose: 25.0 mg/kg/injection, schedule: Q04DX002 (ip), vehicle: saline with Tween-80): 122 % of control | T/C (dose: 50.0 mg/kg/injection, schedule: Q04DX002 (ip), vehicle: saline with Tween-80): 123 % of control | T/C (dose: 100.0 mg/kg/injection, schedule: Q04DX002 (ip), vehicle: saline with Tween-80): 123 % of control | T/C (dose: 200.0 mg/kg/injection, schedule: Q04DX002 (ip), vehicle: saline with Tween-80): 107 % of control

COC(=N)CCNC(=O)C(O)C(O)C(=O)NCCC(=N)OC (stereo unspecified)
T/C [4]: 102 % of control | T/C [5]: 89 % of control | T/C [6]: 105 % of control

C=C(COCNc1ccc(Cl)cc1Cl)C(=O)O
T/C (dose: 50.0 mg/kg/injection, schedule: Q01DX009 (ip), vehicle: Klucel (hydroxypropylcellulose) (HPC)): 105 % of control | T/C (dose: 100.0 mg/kg/injection, schedule: Q01DX009 (ip), vehicle: Klucel (hydroxypropylcellulose) (HPC)): 89 % of control | T/C (dose: 200.0 mg/kg/injection, schedule: Q01DX009 (ip), vehicle: Klucel (hydroxypropylcellulose) (HPC)): 99 % of control

NS(=O)(=O)c1ccc(N2C(=S)N(c3ccccc3)C(=Nc3ccccc3)C2=Nc2ccccc2)cc1
T/C (dose: 50.0 mg/kg/injection, schedule: Q01DX005 (ip), vehicle: Klucel + Tween-80): 96 % of control | T/C (dose: 100.0 mg/kg/injection, schedule: Q01DX005 (ip), vehicle: Klucel + Tween-80): 105 % of control | T/C (dose: 200.0 mg/kg/injection, schedule: Q01DX005 (ip), vehicle: Klucel + Tween-80): 89 % of control

CCOC(=O)N(C)N=NC
T/C (dose: 3.75 mg/kg/injection, schedule: Q01DX005 (ip), vehicle: saline): 100 % of control | T/C (dose: 7.5 mg/kg/injection, schedule: Q01DX005 (ip), vehicle: saline): 107 % of control and 109 % of control | T/C (dose: 15.0 mg/kg/injection, schedule: Q01DX005 (ip), vehicle: saline): 105 % of control | T/C (dose: 30.0 mg/kg/injection, schedule: Q01DX005 (ip), vehicle: saline): 120 % of control

Oc1ccc(C2c3ccccc3Oc3ccccc32)cc1
T/C (dose: 50.0 mg/kg/injection, schedule: Q01DX009 (ip), vehicle: saline with Tween-80): 101 % of control | T/C (dose: 100.0 mg/kg/injection, schedule: Q01DX009 (ip), vehicle: saline with Tween-80): 111 % of control | T/C (dose: 200.0 mg/kg/injection, schedule: Q01DX009 (ip), vehicle: saline with Tween-80): 118 % of control

— PubChem BioAssay AID330 (DTP/NCI, 2004)
